Measurements taken from patent US20240279215A1 (Cytokinetics, Incorporated, priority 2022, published 2024).

Target: human NAMPT (Homo sapiens (Human), UniProt P43490)
Assay: NMN fluorescence biochemical assay (human recombinant NAMPT enzyme assay)
Outline: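 Activation of recombinant human NAMPT (6 nM) was tested with 2.5 mM ATP, 20 μM PRPP and 150 μM nicotinamide in 50 mM HEPES pH 7.2 for 60 min at ambient temperature. NMN was derivatized with acetophenone/KOH/formic acid and read by fluorescence (355/460 nm) after 40 min.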

Sequence of human NAMPT (P43490 whole entry): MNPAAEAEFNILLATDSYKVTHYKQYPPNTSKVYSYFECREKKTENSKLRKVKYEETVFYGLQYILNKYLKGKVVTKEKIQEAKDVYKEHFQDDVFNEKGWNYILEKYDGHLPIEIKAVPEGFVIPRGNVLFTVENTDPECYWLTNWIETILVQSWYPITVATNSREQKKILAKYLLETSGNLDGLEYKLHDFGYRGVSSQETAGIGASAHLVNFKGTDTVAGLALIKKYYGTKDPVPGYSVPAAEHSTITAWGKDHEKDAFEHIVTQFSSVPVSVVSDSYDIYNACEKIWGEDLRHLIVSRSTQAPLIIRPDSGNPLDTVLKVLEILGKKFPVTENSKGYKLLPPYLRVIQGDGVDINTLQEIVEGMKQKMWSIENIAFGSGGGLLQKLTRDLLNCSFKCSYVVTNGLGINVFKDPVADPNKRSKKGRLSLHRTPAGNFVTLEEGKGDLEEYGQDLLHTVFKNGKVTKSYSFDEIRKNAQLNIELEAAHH

AC1.4 Human | EC50 | Structure (SMILES)
0.82 µM | 1.89 µM | O=C(Nc1ccc(CC2CCN(C(=O)C3CCC3)CC2)cc1)OCc1ccc(Cl)cc1 [Compound 102, 4-chlorobenzyl (4-((1-(cyclobutanecarbonyl)piperidin-4-yl)methyl)phenyl)carbamate]
0.83 µM | 4.31 µM | C[C@H](NC(=O)N1CCCC1)c1ccc(NC(=O)OCc2ccc(Cl)cc2)cc1 [Compound 103, 4-chlorobenzyl (S)-(4-(1-(pyrrolidine-1-carboxamido)ethyl)phenyl)carbamate]
0.85 µM | 5.06 µM | Cc1ccc(C(=O)N(C)Cc2ccc(NC(=O)OCc3ccc(Cl)cc3)cc2)cn1 [Compound 104, (4-chlorophenyl)methyl N-(4-{[N-methyl-1-(6-methylpyridin-3-yl)formamido]methyl}phenyl)carbamate]
0.85 µM | 1.94 µM | C[C@H](NC(=O)c1ccncc1)c1ccc(NC(=O)OCc2ccc(Cl)cc2)cc1 [Compound 105, (4-chlorophenyl)methyl N-{4-[(1S)-1-(pyridin-4-ylformamido)ethyl]phenyl}carbamate]
0.86 µM | 26.4 µM | O=C(Nc1ccc(Cc2ccncc2)cc1)OCc1ccc(CO)cc1 [Compound 106, 4-(hydroxymethyl)benzyl (4-(pyridin-4-ylmethyl)phenyl)carbamate]
0.89 µM | 10.8 µM | CS(=O)(=O)N1CCN(Cc2ccc(NC(=O)OCc3ccc(Cl)cc3)cc2)CC1 [Compound 107, (4-chlorophenyl)methyl N-{4-[(4-methanesulfonylpiperazin-1-yl)methyl]phenyl}carbamate]
0.89 µM | 8.17 µM | Cc1nocc1C(=O)N(C)Cc1ccc(NC(=O)OCc2ccc(Cl)cc2)cc1 [Compound 108, (4-chlorophenyl)methyl N-(4-{[N-methyl-1-(3-methyl-1,2-oxazol-4-yl)formamido]methyl}phenyl)carbamate]
0.90 µM | 4.71 µM | Cc1ncc(C(=O)NCc2ccc(NC(=O)OCc3ccc(Cl)cc3)cc2)cn1 [Compound 109, (4-chlorophenyl)methyl N-(4-{[(2-methylpyrimidin-5-yl)formamido]methyl}phenyl)carbamate]
0.91 µM | 3.46 µM | COc1cc(C(=O)N[C@@H](C)c2ccc(NC(=O)OCc3ccc(Cl)cc3)cc2)cnc1C [Compound 110, (4-chlorophenyl)methyl N-{4-[(1S)-1-[(5-methoxy-6-methylpyridin-3-yl)formamido]ethyl]phenyl}carbamate]
0.91 µM | 5.33 µM | O=C(Nc1ccc(CC(=O)N2CCCCC2)cc1)OCc1ccc(Cl)cc1 [Compound 111, (4-chlorophenyl)methyl N-{4-[2-oxo-2-(piperidin-1-yl)ethyl]phenyl}carbamate]
0.93 µM | 5.53 µM | CN(Cc1ccc(NC(=O)OCc2ccc(Cl)cc2)cc1)C(=O)N1CCC1 [Compound 112, 4-chlorobenzyl (4-((N-methylazetidine-1-carboxamido)methyl)phenyl)carbamate]
0.94 µM | 51 µM | O=C(Nc1ccc(C2CCN(CC(F)F)CC2)cc1)OCc1cnco1 [Compound 113, 1,3-oxazol-5-ylmethyl N-{4-[1-(2,2-difluoroethyl)piperidin-4-yl]phenyl}carbamate]
0.94 µM | 19.7 µM | Cc1ccc(Cc2ccc(NC(=O)OCc3cncs3)cc2)cn1 [Compound 114, thiazol-5-ylmethyl (4-((6-methylpyridin-3-yl)methyl)phenyl)carbamate]
0.94 µM | 3.13 µM | CC(=O)N1CCC(Cc2ccc(NC(=O)OCc3ccncc3)cc2)CC1 [Compound 115, pyridin-4-ylmethyl (4-((1-acetylpiperidin-4-yl)methyl)phenyl)carbamate]
0.95 µM | 6.77 µM | CC1(O)CCN(C(=O)Cc2ccc(NC(=O)OCc3ccc(Cl)cc3)cc2)CC1 [Compound 116, (4-chlorophenyl)methyl N-{4-[2-(4-hydroxy-4-methylpiperidin-1-yl)-2-oxoethyl]phenyl}carbamate]
0.95 µM | 8.14 µM | C[C@H](NC(=O)C1CCOCC1)c1ccc(NC(=O)OCc2ccc(Cl)cc2)cc1 [Compound 117, 4-chlorobenzyl (S)-(4-(1-(tetrahydro-2H-pyran-4-carboxamido)ethyl)phenyl)carbamate]
0.95 µM | 3.13 µM | C[C@H](NC(=O)c1cccnc1)c1ccc(NC(=O)OCc2ccc(Cl)cc2)cc1 [Compound 118, (4-chlorophenyl)methyl N-{4-[(1S)-1-(pyridin-3-ylformamido)ethyl]phenyl}carbamate]
0.95 µM | 21.7 µM | O=C(Nc1ccc(CC(=O)N2CCC(O)CC2)cc1)OCc1ccc(Cl)cc1 [Compound 119, (4-chlorophenyl)methyl N-{4-[2-(4-hydroxypiperidin-1-yl)-2-oxoethyl]phenyl}carbamate]

AC1.4 Human | EC50 | Structure (SMILES)
0.96 µM | 44.9 µM | COC(=O)N1CCC(CCc2ccc(NC(=O)OCc3cnco3)cc2)CC1 [Compound 120, methyl 4-(4-(((oxazol-5-ylmethoxy)carbonyl)amino)phenethyl)piperidine-1-carboxylate]
0.97 µM | 6.46 µM | C[C@H](NC(=O)C1COC1)c1ccc(NC(=O)OCc2ccc(Cl)cc2)cc1 [Compound 122, 4-chlorobenzyl (S)-(4-(1-(oxetane-3-carboxamido)ethyl)phenyl)carbamate]
0.98 µM | 5.01 µM | CC1(C)CCN(Cc2ccc(NC(=O)OCc3ccc(Cl)cc3)cc2)C1=O [Compound 123, (4-chlorophenyl)methyl N-{4-[(3,3-dimethyl-2-oxopyrrolidin-1-yl)methyl]phenyl}carbamate]
0.98 µM | 15.3 µM | CN1CCC(C(=O)NCc2ccc(NC(=O)OCc3ccc(Cl)cc3)cc2)CC1=O (stereo not shown) [Compound 124, (4-chlorophenyl)methyl N-(4-{[(1-methyl-2-oxopiperidin-4-yl)formamido]methyl}phenyl)carbamate]
0.98 µM | 6.02 µM | Cc1nc(C)c(C(=O)N[C@@H](C)c2ccc(NC(=O)OCc3ccc(Cl)cc3)cc2)o1 [Compound 125, 4-chlorobenzyl (S)-(4-(1-(2,4-dimethyloxazole-5-carboxamido)ethyl)phenyl)carbamate]
0.99 µM | 4.06 µM | O=C(Nc1ccc(CNC(=O)c2ccncc2)cc1)OCc1ccc(Cl)cc1 [Compound 126, (4-chlorophenyl)methyl N-{4-[(pyridin-4-ylformamido)methyl]phenyl}carbamate]
1.00 µM | 7.3 µM | Cc1nn(C)c(C(=O)N(C)Cc2ccc(NC(=O)OCc3ccc(Cl)cc3)cc2)c1C [Compound 127, (4-chlorophenyl)methyl N-(4-{[N-methyl-1-(2,4,5-trimethylpyrazol-3-yl)formamido]methyl}phenyl)carbamate]
1.03 µM | 4.75 µM | CN(Cc1ccc(NC(=O)OCc2ccc(Cl)cc2)cc1)C(=O)N1CCCC1 [Compound 128, 4-chlorobenzyl (4-((N-methylpyrrolidine-1-carboxamido)methyl)phenyl)carbamate]
1.03 µM | 2.22 µM | CC(C)Cn1nccc1C(=O)N[C@@H](C)c1ccc(NC(=O)OCc2ccc(Cl)cc2)cc1 [Compound 129, (4-chlorophenyl)methyl N-{4-[(1S)-1-{[2-(2-methylpropyl)pyrazol-3-yl]formamido}ethyl]phenyl}carbamate]
1.03 µM | 8.13 µM | CN(Cc1ccc(NC(=O)OCc2ccc(Cl)cc2)cc1)C(=O)c1cnco1 [Compound 130, (4-chlorophenyl)methyl N-(4-[(N-methyl-1-1,3-oxazol-5-ylformamido)methyl]phenyl}carbamate]
1.05 µM | 2.55 µM | CC(C)n1nccc1C(=O)N(C)Cc1ccc(NC(=O)OCc2ccc(Cl)cc2)cc1 [Compound 131, (4-chlorophenyl)methyl N-(4-{[1-(2-isopropylpyrazol-3-yl)-N-methylformamido]methyl}phenyl)carbamate]
1.07 µM | 8.6 µM | Cc1ccc(C(=O)NCc2ccc(NC(=O)OCc3ccc(C(F)F)cc3)cc2)cn1 [Compound 133, (4-(difluoro-13-methyl)phenyl)methyl (4-((6-methylnicotinamido)methyl)phenyl)carbamate]
1.07 µM | 13.7 µM | COC1CCN(C(=O)N(C)[C@@H](C)c2ccc(NC(=O)OCc3ccc(Cl)cc3)cc2)CC1 [Compound 134, 4-chlorobenzyl (S)-(4-(1-(4-methoxy-N-methylpiperidine-1-carboxamido)ethyl)phenyl)carbamate]
1.07 µM | 3.28 µM | COc1cnn(C)c1C(=O)NCc1ccc(NC(=O)OCc2ccc(Cl)cc2)cc1 [Compound 135, (4-chlorophenyl)methyl N-(4-{[(4-methoxy-2-methylpyrazol-3-yl)formamido]methyl}phenyl)carbamate]
1.09 µM | 2.23 µM | Cc1cnc(C(=O)NCc2ccc(NC(=O)OCc3ccc(Cl)cc3)cc2)cn1 [Compound 136, (4-chlorophenyl)methyl N-(4-{[(5-methylpyrazin-2-yl)formamido]methyl}phenyl)carbamate]
1.11 µM | 3.83 µM | CCc1cc(C(=O)N[C@@H](C)c2ccc(NC(=O)OCc3ccc(Cl)cc3)cc2)n(C)n1 [Compound 137, (4-chlorophenyl)methyl N-{4-[(1S)-1-[(5-ethyl-2-methylpyrazol-3-yl)formamido]ethyl]phenyl}carbamate]
1.11 µM | 8.41 µM | COc1cc(C(=O)NCc2ccc(NC(=O)OCc3ccc(Cl)cc3)cc2)n(C)n1 [Compound 138, (4-chlorophenyl)methyl N-(4-{[(5-methoxy-2-methylpyrazol-3-yl)formamido]methyl}phenyl)carbamate]
